Measured values reported in ChEMBL document CHEMBL1909046, “DrugMatrix in vitro pharmacology data”.

Experiments:
Cytochrome P450 2C9 = Cytochrome P450 2C9 (Homo sapiens, UniProt P11712)
[1] = molecular target: Voltage-gated inwardly rectifying potassium channel KCNH2 (Homo sapiens, UniProt Q12809)
Glucocorticoid receptor = molecular target: T1, Glucocorticoid receptor (Homo sapiens, UniProt P04150); experiment: biochemical
T1 sequence (P04150 whole entry): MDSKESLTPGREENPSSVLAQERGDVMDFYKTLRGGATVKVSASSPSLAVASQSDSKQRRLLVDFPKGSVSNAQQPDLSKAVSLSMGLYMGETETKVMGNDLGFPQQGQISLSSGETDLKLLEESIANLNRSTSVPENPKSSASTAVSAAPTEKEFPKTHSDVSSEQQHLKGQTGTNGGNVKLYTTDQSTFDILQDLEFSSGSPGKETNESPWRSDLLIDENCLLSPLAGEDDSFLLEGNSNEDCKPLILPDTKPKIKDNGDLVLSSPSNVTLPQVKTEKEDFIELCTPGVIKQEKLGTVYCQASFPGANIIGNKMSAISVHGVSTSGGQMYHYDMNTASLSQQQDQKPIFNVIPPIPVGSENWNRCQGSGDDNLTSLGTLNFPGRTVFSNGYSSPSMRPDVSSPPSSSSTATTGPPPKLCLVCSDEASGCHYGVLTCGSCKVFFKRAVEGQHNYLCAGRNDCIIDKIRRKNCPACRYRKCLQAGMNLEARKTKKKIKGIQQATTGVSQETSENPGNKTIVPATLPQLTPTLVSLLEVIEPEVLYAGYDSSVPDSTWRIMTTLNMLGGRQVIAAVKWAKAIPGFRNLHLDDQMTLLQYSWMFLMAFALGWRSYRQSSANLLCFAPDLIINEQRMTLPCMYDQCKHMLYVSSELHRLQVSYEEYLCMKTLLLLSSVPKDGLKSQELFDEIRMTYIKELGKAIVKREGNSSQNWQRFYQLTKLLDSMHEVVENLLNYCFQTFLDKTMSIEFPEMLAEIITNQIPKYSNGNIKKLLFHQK

Estrogen receptor = molecular target: T2, Estrogen receptor (Homo sapiens, UniProt P03372); experiment: biochemical
T2 sequence (P03372 whole entry): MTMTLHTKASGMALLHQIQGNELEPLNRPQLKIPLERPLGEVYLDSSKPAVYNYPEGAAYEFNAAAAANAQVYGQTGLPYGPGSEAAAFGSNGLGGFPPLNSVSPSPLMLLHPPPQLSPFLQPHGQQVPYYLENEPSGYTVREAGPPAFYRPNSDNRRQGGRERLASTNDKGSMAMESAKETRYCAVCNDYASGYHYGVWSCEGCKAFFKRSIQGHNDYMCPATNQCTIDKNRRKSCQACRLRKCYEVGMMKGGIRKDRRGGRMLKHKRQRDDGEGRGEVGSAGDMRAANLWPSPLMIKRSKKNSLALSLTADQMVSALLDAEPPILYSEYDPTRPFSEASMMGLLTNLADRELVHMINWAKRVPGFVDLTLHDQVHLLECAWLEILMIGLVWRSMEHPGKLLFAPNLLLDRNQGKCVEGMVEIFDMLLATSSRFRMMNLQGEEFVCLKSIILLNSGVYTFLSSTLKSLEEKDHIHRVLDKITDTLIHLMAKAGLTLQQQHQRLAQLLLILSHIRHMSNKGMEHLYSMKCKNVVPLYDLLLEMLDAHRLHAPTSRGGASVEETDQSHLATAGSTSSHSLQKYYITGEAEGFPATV

Voltage-gated inwardly rectifying potassium channel KCNH2, sequence (Q12809 whole entry): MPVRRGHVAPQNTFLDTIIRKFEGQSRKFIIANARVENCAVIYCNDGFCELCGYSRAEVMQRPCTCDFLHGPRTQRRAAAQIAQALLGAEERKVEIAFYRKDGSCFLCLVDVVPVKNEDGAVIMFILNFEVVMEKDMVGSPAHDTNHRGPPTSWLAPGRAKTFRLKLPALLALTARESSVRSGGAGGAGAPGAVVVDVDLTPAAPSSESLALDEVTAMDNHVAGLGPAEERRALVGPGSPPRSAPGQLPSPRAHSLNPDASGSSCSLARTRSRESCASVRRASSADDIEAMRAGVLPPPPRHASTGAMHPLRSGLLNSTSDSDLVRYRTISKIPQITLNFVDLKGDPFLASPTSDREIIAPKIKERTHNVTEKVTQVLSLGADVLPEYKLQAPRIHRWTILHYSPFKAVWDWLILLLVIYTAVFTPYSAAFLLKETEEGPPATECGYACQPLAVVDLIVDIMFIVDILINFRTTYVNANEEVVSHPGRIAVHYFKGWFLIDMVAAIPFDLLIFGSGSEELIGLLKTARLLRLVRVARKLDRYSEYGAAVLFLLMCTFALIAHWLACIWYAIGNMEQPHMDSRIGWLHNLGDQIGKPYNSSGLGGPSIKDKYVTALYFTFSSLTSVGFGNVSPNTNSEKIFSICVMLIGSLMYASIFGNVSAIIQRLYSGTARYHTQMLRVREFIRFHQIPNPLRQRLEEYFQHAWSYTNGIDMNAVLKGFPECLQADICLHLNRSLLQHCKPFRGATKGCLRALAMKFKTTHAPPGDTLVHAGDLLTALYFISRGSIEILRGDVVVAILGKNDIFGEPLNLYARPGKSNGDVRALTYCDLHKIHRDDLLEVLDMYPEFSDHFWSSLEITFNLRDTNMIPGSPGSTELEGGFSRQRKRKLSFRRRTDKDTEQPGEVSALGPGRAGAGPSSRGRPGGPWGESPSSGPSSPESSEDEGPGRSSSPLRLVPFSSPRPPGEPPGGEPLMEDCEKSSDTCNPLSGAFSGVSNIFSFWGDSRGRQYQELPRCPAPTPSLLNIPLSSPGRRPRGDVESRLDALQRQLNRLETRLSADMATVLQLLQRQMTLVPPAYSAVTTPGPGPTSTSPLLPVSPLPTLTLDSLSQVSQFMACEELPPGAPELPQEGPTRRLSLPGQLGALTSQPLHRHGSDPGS
Cytochrome P450 2C9, sequence (P11712 whole entry): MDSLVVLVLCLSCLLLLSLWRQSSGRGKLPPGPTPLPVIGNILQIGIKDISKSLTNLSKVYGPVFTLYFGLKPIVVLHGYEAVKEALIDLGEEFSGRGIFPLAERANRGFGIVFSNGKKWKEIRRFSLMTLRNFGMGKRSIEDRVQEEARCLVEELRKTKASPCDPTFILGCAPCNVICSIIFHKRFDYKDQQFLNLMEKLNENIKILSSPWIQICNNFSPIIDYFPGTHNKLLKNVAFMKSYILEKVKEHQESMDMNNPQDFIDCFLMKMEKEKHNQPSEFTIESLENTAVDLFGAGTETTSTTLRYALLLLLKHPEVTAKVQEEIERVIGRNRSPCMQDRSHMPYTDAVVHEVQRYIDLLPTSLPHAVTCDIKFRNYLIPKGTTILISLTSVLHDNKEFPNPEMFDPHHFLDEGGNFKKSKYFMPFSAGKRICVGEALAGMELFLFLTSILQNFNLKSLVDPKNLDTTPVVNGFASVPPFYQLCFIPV

SMILES	IC50 [1] [nM]	Ki [1] [nM]	IC50 (Glucocorticoid receptor) [nM]	Ki (Glucocorticoid receptor) [nM]	other results
O=C1CCc2cc(OCCCCc3nnnn3C3CCCCC3)ccc2N1 [CILOSTAZOL]					IC50 (Cytochrome P450 2C9): 10000 nM
COc1ccc(CN(CCN(C)C)c2ccccn2)cc1 [PYRILAMINE]	12600	10300			
CC(=O)[C@@]1(O)CC[C@H]2[C@@H]3C[C@H](C)C4=CC(=O)C=C[C@]4(C)[C@@]3(F)[C@@H](O)C[C@@]21C [FLUOROMETHOLONE]			3.47	1.58	
CC(=O)OCC(=O)[C@@]1(OC(C)=O)[C@@H](C)C[C@H]2[C@@H]3C[C@H](F)C4=CC(=O)C=C[C@]4(C)[C@@]3(F)[C@@H](O)C[C@@]21C [DIFLORASONE DIACETATE]			6.4	2.91	
CCCCCCCCCc1ccc(O)cc1 [4-NONYLPHENOL]					IC50 (Estrogen receptor): 377 nM; Ki (Estrogen receptor): 108 nM
Cc1c(-c2ccccc2)oc2c(C(=O)OCCN3CCCCC3)cccc2c1=O [FLAVOXATE]	24100	19800			
